Key:
[1] = Lipophilicity, logD of compound at pH 7.4; conditions: buffer
[2] = biological target: Non-receptor tyrosine-protein kinase TYK2 (Homo sapiens) (UniProt P29597); assay: Inhibition of wild-type human partial length TYK2 expressed in mammalian expression system assessed as residual activity at 1 uM by Kinomescan method relative to control
[3] = biological target: Serine/threonine-protein kinase WNK1 (Homo sapiens) (UniProt Q9H4A3); assay: Inhibition of wild-type human partial length WNK1 (Q194 to A490 residues) expressed in mammalian expression system assessed as residual activity at 1 uM by Kinomescan method relative to control
[4] = biological target: Serine/threonine-protein kinase ULK1 (Homo sapiens) (UniProt O75385); assay: Inhibition of wild-type human partial length ULK1 (M1 to T309 residues) expressed in mammalian expression system assessed as residual activity at 1 uM by Kinomescan method relative to control
[5] = biological target: Phosphorylase b kinase gamma catalytic chain, skeletal muscle/heart isoform (Homo sapiens) (UniProt Q16816); assay: Inhibition of wild-type human full length PHKG1 (M1 to Y387 residues) expressed in bacterial expression system assessed as residual activity at 1 uM by Kinomescan method relative to control
[6] = biological target: Mitogen-activated protein kinase kinase kinase 8 (Homo sapiens) (UniProt P41279); assay: Inhibition of COT1 (unknown origin) assessed as residual activity at 1 uM by Kinomescan method relative to control
[7] = biological target: Serine/threonine-protein kinase ULK2 (Homo sapiens) (UniProt Q8IYT8); assay: Inhibition of wild-type human partial length ULK2 (M1 to S301 residues) expressed in mammalian expression system assessed as residual activity at 1 uM by Kinomescan method relative to control
[8] = biological target: Calcium/calmodulin-dependent protein kinase type II subunit alpha (Homo sapiens) (UniProt Q9UQM7); assay: Inhibition of wild-type human partial length CAMK2A (M1 to K328 residues) expressed in bacterial expression system assessed as residual activity at 1 uM by Kinomescan method relative to control
Calcium/calmodulin-dependent protein kinase type II subunit alpha (Homo sapiens), sequence (Q9UQM7 whole entry, the tested form may be a part): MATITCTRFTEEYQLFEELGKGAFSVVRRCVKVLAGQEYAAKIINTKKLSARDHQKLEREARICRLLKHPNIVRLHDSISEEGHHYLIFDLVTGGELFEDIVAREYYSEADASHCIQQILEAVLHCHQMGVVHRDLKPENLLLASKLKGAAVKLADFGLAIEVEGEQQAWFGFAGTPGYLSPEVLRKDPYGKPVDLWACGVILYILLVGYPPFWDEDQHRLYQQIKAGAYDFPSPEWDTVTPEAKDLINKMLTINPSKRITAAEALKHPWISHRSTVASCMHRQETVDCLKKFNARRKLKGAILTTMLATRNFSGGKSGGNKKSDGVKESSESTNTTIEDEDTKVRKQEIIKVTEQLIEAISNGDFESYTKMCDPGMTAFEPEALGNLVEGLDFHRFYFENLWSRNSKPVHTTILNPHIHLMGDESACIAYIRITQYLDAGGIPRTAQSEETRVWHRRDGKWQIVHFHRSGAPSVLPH

[9] = Metabolic stability in human liver microsomes assessed as intrinsic clearance; assay type: ADME, Microsome
[10] = biological target: ALK tyrosine kinase receptor (Homo sapiens) (UniProt Q9UM73); assay: Inhibition of wild-type human partial length ALK (I1088 to E1409 residues) expressed in mammalian expression system assessed as residual activity at 1 uM by Kinomescan method relative to control
[11] = biological target: Death-associated protein kinase 1 (Homo sapiens) (UniProt P53355); assay: Inhibition of wild-type human partial length DAPK1 (M1 to F296 residues) expressed in bacterial expression system assessed as residual activity at 1 uM by Kinomescan method relative to control
[12] = biological target: Focal adhesion kinase 1 (Homo sapiens) (UniProt Q05397); assay: Inhibition of wild-type human partial length FAK (D402 to R696 residues) expressed in bacterial expression system assessed as residual activity at 1 uM by Kinomescan method relative to control
[13] = biological target: Glycogen synthase kinase-3 alpha (Homo sapiens) (UniProt P49840); assay: Inhibition of wild-type human full length GSK3A (M1 to S483 residues) expressed in bacterial expression system assessed as residual activity at 1 uM by Kinomescan method relative to control
[14] = biological target: Casein kinase I isoform gamma-3 (Homo sapiens) (UniProt Q9Y6M4); assay: Inhibition of CK1g3 (unknown origin) assessed as residual activity at 1 uM by Kinomescan method relative to control
[15] = biological target: Misshapen-like kinase 1 (Homo sapiens) (UniProt Q8N4C8); assay: Inhibition of wild-type human partial length MINK (M1 to K312 residues) expressed in mammalian expression system assessed as residual activity at 1 uM by Kinomescan method relative to control
[16] = biological target: Myosin light chain kinase (Homo sapiens) (UniProt Q32MK0); assay: Inhibition of wild-type human partial length MLCK (D488 to K800 residues) expressed in bacterial expression system assessed as residual activity at 1 uM by Kinomescan method relative to control
Myosin light chain kinase (Homo sapiens), sequence (Q32MK0 whole entry, the tested form may be a part): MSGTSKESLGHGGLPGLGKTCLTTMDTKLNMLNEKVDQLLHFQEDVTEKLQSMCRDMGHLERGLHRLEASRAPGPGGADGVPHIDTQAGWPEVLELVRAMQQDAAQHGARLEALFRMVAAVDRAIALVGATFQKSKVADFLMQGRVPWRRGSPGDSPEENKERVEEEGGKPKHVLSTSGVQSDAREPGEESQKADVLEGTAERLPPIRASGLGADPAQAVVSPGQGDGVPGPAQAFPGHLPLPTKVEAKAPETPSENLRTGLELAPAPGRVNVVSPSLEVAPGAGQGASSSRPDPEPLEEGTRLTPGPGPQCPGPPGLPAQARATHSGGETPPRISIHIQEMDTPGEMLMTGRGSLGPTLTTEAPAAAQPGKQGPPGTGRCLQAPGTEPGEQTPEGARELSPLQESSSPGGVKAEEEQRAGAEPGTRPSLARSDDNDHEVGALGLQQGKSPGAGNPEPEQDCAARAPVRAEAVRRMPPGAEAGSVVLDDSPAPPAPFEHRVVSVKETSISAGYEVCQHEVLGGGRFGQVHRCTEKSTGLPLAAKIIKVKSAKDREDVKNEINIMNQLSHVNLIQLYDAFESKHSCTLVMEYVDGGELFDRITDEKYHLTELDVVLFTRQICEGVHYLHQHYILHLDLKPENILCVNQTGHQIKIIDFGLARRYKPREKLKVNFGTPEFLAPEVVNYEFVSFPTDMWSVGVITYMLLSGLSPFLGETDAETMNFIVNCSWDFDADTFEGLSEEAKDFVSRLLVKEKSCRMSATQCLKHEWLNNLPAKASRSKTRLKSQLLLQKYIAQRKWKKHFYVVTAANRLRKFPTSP

[17] = biological target: Mitogen-activated protein kinase kinase kinase 11 (Homo sapiens) (UniProt Q16584); assay: Inhibition of wild-type human partial length MLK3 (I77 to W399 residues) expressed in bacterial expression system assessed as residual activity at 1 uM by Kinomescan method relative to control
[18] = biological target: Serine/threonine-protein kinase 26 (Homo sapiens) (UniProt Q9P289); assay: Inhibition of wild-type human full length MST4 (M1 to P416 residues) expressed in mammalian expression system assessed as residual activity at 1 uM by Kinomescan method relative to control
[19] = biological target: Mitogen-activated protein kinase kinase kinase kinase 5 (Homo sapiens) (UniProt Q9Y4K4); assay: Inhibition of wild-type human partial length MAP4K5 (M1 to P297 residues) expressed in bacterial expression system assessed as residual activity at 1 uM by Kinomescan method relative to control
[20] = biological target: Serine/threonine-protein kinase PLK3 (Homo sapiens) (UniProt Q9H4B4); assay: Inhibition of wild-type human partial length PLK3 (A42 to L334 residues) expressed in mammalian expression system assessed as residual activity at 1 uM by Kinomescan method relative to control
Serine/threonine-protein kinase PLK3 (Homo sapiens), sequence (Q9H4B4 whole entry, looked up, the tested form may be a part): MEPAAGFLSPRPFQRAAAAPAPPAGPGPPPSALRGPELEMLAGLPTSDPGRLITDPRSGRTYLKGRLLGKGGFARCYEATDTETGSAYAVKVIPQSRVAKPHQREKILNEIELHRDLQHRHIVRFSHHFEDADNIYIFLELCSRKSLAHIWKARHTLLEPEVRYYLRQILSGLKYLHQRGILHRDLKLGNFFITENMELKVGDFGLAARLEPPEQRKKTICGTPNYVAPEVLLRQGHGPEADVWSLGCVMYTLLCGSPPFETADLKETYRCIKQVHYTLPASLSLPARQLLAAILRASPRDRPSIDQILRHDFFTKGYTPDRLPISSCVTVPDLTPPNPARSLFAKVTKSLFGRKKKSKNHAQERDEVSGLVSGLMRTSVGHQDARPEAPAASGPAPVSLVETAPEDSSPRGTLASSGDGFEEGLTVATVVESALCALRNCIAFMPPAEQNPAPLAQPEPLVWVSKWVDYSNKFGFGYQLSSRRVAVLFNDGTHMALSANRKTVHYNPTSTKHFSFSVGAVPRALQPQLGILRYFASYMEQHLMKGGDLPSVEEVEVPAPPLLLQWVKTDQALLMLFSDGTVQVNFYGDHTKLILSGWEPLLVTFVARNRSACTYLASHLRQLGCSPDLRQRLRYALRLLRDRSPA

[21] = biological target: Serine/threonine-protein kinase 33 (Homo sapiens) (UniProt Q9BYT3); assay: Inhibition of wild-type human full length STK33 (M1 to L514 residues) expressed in bacterial expression system assessed as residual activity at 1 uM by Kinomescan method relative to control
Serine/threonine-protein kinase 33 (Homo sapiens), sequence (Q9BYT3 whole entry, looked up, the tested form may be a part): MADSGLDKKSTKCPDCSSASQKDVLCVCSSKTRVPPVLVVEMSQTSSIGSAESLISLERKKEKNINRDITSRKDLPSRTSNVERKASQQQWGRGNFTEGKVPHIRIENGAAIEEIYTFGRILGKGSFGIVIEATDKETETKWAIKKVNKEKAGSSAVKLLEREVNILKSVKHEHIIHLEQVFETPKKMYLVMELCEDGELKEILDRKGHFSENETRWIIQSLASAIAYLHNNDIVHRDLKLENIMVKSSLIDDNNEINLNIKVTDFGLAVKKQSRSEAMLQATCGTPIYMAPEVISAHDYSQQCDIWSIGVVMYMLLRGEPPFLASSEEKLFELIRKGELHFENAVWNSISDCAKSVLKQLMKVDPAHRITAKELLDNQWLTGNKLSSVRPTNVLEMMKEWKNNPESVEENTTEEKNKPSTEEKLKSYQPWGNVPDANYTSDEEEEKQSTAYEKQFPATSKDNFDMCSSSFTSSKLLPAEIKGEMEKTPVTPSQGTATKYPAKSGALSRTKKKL

[22] = biological target: TGF-beta receptor type-1 (Homo sapiens) (UniProt P36897); assay: Inhibition of wild-type human partial length TGFBR1 (D179 to M503 residues) expressed in bacterial expression system assessed as residual activity at 1 uM by Kinomescan method relative to control
[23] = In vivo inhibition of LRRK2 in Han-Wistar rat assessed as reduction in Ser935 phosphorylation in brain at 100 mg/kg, po by Western blot analysis; assay type: functional; parameters: scale not given: the % may be the effect or the level left
Homo sapiens = species: Homo sapiens; assay: Inhibition of wild-type human full length CDK9 (M1 to F372 residues)/cyclin T1 expressed in bacterial expression system assessed as residual activity at 1 uM by Kinomescan method relative to control
[24] = biological target: Lymphokine-activated killer T-cell-originated protein kinase (Homo sapiens) (UniProt Q96KB5); assay: Inhibition of PBK (unknown origin) assessed as residual activity at 1 uM by Kinomescan method relative to control
[25] = biological target: Serine/threonine-protein kinase ICK (Homo sapiens) (UniProt Q9UPZ9); assay: Inhibition of wild-type human partial length ICK (M1 to P314 residues) expressed in mammalian expression system assessed as residual activity at 1 uM by Kinomescan method relative to control
Serine/threonine-protein kinase ICK (Homo sapiens), sequence (Q9UPZ9 whole entry, the tested form may be a part): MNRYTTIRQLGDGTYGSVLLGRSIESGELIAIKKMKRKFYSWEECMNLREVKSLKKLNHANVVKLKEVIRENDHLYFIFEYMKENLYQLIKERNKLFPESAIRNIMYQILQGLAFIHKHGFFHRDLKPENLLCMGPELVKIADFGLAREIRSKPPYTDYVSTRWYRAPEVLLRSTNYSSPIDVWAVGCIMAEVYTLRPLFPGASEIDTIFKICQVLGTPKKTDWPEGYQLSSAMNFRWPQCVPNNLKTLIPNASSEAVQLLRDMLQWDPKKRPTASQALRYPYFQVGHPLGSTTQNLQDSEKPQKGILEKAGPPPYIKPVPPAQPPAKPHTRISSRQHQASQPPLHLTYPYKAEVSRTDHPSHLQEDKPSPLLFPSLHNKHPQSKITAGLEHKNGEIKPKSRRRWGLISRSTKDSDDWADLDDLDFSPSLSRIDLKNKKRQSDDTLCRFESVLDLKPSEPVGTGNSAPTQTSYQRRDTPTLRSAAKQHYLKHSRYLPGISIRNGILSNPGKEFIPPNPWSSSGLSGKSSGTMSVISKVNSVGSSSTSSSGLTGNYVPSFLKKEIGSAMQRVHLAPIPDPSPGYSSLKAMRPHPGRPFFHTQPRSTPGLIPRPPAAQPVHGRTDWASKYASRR

[26] = biological target: NUAK family SNF1-like kinase 2 (Homo sapiens) (UniProt Q9H093); assay: Inhibition of wild-type human partial length SNARK (P22 to A333 residues) expressed in mammalian expression system assessed as residual activity at 1 uM by Kinomescan method relative to control
[27] = biological target: Receptor-interacting serine/threonine-protein kinase 3 (Homo sapiens) (UniProt Q9Y572); assay: Inhibition of wild-type human partial length RIPK3 (M1 to Q307 residues) expressed in bacterial expression system assessed as residual activity at 1 uM by Kinomescan method relative to control
Receptor-interacting serine/threonine-protein kinase 3 (Homo sapiens), sequence (Q9Y572 whole entry, looked up, the tested form may be a part): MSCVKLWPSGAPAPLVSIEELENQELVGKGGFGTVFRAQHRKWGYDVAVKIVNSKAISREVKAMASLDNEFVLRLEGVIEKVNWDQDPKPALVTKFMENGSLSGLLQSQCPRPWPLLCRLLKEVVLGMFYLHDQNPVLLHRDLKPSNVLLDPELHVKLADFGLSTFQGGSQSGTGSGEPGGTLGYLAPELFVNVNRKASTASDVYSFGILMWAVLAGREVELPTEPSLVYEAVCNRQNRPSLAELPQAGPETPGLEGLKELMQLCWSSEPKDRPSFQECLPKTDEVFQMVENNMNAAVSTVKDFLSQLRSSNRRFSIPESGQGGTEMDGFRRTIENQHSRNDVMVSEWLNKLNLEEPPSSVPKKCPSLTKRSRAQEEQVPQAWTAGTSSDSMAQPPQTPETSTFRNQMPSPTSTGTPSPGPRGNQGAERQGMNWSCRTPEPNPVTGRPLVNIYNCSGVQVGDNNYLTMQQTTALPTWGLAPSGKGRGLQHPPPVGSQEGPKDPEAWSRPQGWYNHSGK

Non-receptor tyrosine-protein kinase TYK2 (Homo sapiens), sequence (P29597 whole entry, the tested form may be a part): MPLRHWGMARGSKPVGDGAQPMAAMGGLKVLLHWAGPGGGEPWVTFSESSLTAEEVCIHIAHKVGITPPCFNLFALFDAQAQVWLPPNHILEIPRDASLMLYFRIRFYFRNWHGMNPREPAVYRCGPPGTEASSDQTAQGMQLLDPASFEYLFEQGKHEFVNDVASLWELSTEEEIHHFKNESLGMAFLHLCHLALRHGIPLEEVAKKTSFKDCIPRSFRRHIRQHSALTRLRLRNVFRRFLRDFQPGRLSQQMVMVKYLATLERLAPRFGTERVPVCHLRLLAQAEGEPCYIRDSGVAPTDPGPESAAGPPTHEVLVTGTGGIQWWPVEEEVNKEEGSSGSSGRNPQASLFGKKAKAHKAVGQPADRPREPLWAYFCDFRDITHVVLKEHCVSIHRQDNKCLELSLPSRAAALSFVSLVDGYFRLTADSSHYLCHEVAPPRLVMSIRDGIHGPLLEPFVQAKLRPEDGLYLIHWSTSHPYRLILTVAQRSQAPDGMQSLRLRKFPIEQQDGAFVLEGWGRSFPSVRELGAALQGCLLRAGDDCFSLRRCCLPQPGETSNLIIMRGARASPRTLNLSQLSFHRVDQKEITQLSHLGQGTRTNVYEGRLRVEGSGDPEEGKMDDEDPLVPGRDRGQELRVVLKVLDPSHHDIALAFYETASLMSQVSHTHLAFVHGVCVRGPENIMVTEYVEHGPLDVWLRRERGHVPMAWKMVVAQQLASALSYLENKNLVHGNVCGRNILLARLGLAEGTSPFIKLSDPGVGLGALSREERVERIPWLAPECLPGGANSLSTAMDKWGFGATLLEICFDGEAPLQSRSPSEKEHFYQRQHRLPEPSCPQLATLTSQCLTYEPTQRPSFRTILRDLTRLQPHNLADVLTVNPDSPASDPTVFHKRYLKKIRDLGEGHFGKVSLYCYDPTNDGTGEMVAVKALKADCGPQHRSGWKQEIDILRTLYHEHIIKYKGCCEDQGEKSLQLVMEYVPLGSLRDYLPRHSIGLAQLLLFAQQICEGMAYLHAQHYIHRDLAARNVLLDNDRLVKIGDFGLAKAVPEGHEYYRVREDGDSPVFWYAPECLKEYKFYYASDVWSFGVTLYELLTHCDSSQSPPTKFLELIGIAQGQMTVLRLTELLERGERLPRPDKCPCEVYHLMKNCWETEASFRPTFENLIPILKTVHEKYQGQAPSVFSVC

SMILES: CCOc1nc(Nc2ccc(C(=O)N3CCOCC3)cc2OC)nc2[nH]ccc12
- logD [1]: 4.5
- Activity [2]: 96.5%
- Activity [3]: 78.5%
- Activity [4]: 86.1%
- Activity [5]: 34.3%
- Activity [6]: 101%
- Activity [7]: 101%
- Activity [8]: 214%
- CLH [9]: 1.1 mL/min/g
- Activity [10]: 7.52%
- Activity [11]: 64.9%
- Activity [12]: 39.5%
- Activity [13]: 87.8%
- Activity [14]: 92.3%
- Activity [15]: 107%
- Activity [16]: 15.8%
- Activity [17]: 101%
- Activity [18]: 88.4%
- Activity [19]: 101%
- Activity [20]: 88.1%
- Activity [21]: 49.5%
- Activity [22]: 96.6%
- Activity [23]: 75%
- Activity (Homo sapiens): 91.6%
- Activity [24]: 101%
- Activity [25]: 104%
- Activity [26]: 98.5%
- Activity [27]: 108%

From ChEMBL document CHEMBL4715821, “Discovery of 4-ethoxy-7H-pyrrolo[2,3-d]pyrimidin-2-amines as potent, selective and orally bioavailable LRRK2 inhibitors” (Bioorg Med Chem Lett, 2018)
